According to article PMC12102733, “The mycotoxin Beauvericin is an uncompetitive inhibitor of Cathepsin B” (Protein Science : A Publication of the Protein Society, 2025):
pKi: −log10 of the molar value.

Tests used:
human CTSB = molecular target: T1, human CTSB (Homo sapiens, UniProt P07858); assay: Enzyme kinetics of recombinant human CTSB in the presence of BEA; assay type: biochemical; details: uncompetitive; approximated from closest neighbor intersection point of [S]/v vs. [I] plot; Z-Leu-Arg AMC substrate, BEA 0-25 μM, 25 mM MES pH 5, 26°C; read-out: K i (estimated)
T1 construct: purchased R&D Biosystems 953‐CY
Protocol: Recombinant human CTSB (R&D Biosystems, Cat# 953‐CY) was activated in a solution of 25 mM MES pH 5 and 5 mM DTT at a protein concentration of 25 μg/mL, as indicated by the manufacturer. The activation was carried out by incubating the solution in a thermal bath at 26°C for 30 min and then diluting it to a concentration of 0.2 μg/mL in a 25 mM MES buffer pH 5. Complete conversion of Procathepsin B into its cleaved form by activation was verified by SDS‐PAGE (Figure S1, Supporting Information).
Reactions were carried out in a 96‐well black microplate (Greiner Bio‐One, Cat# 675086) in a final volume of 100 μL, using 20 ng of enzyme with increasing concentrations of the fluorogenic substrate Z‐Leu‐Arg AMC (R&D Biosystems, Cat# ES008) (from 0 to 200 μM) and BEA (from 0 to 25 μM).
Progress curves were measured using a TECAN infinite M plex microplate reader with an excitation wavelength of 380 nm and an emission wavelength of 460 nm. All the components, except the enzyme, were loaded onto the plate and were left to reach a temperature of 26°C. Protein samples were loaded using a multichannel pipette. Plates were shaken using a pulse of 3.5 s with an amplitude of 4.5 mm. Data was collected for a total of 1400 s with a reading interval of 45 s.
Reaction rates were calculated from the progress curves using linear regression. […]

[1] = Solubility in aqueous buffers; assay type: physicochemical; details: 0.1% (v/v) Tween 20 used to increase solubility
Protocol: NMR experiments were performed at 298 K on Bruker Avance III HD spectrometers operating at 750 MHz, equipped with 5 mm triple resonance TCI (^1H, ^13C, ^15N) cryoprobes and shielded z‐gradients. BEA compound was purchased (Item No. 11426) from Cayman Chemical, Ann Arbor, Michigan, USA, and recombinant human CTSB (6His tag at the C‐terminus) was purchased (Item No. 153921.10) from Biomol GmbH, Hamburg, Germany. Both CTSB and BEA were used without any further purifications. The purity of the compound (>95%) was checked by 1D ^1H NMR of 250 μM BEA compound measured (256 scans) in 90% (v/v) DMSOd6 (Figure 2a). […] To perform STD‐NMR experiments, 5 μM of CTSB and 250 μM BEA were prepared in 25 mM oxalic acid/sodium oxalate, 5% (v/v) DMSOd6, pH 5.0, 10% (v/v) D2O, and 0.1% (v/v) Tween 20. The STD‐NMR spectra were acquired with 4928 scans, and the subtraction of the reference spectrum was performed internally via phase cycling after every scan to obtain the STD effect. […] There was no compound signal detected below 0 ppm. […] The STD intensity of the aromatic proton STD effect was set to 100% as a reference, and the relative intensities were determined (Mayer and Meyer [2001]). […] Data was processed and analyzed with TopSpin 3.2 (Bruker BioSpin). […]

CC(C)[C@H]1OC(=O)[C@H](Cc2ccccc2)N(C)C(=O)[C@@H](C(C)C)OC(=O)[C@H](Cc2ccccc2)N(C)C(=O)[C@@H](C(C)C)OC(=O)[C@H](Cc2ccccc2)N(C)C1=O [BEA, Beauvericin]
pKi (human CTSB): ~4.35
solubility in aqueous buffers [1]: sparingly soluble in aqueous buffers
